# In ChEMBL document CHEMBL4020788, “Synthesis, SAR and molecular docking studies of benzo[d]thiazole-hydrazones as potential antibacterial and antifungal agents” (2017):
# Calls of active or inactive are those of the source. No cut-off for these calls is given here.
# Key:
# Assay type in all cases: functional
# Fusarium verticillioides [1] = assay: Antifungal activity against Fusarium moniliforme at 100 ug/ml after 48 hrs by agar well diffusion method; conditions: for zone of inhibition at 100 µg/mL: read-out: DIZ
# Escherichia coli [2] = assay: Antibacterial activity against Escherichia coli at 50 ug/ml after 24 hrs by agar well diffusion method; conditions: read-out: DIZ
# Bacillus subtilis [3] = assay: Antibacterial activity against Bacillus subtilis at 75 ug/ml after 24 hrs by agar well diffusion method
# Escherichia coli [4] = assay: Antibacterial activity against Escherichia coli at 75 ug/ml after 24 hrs by agar well diffusion method; conditions: read-out: DIZ
# Staphylococcus aureus [5] = assay: Antibacterial activity against Staphylococcus aureus at 50 ug/ml after 24 hrs by agar well diffusion method
# Staphylococcus aureus [6] = assay: Antibacterial activity against methicillin resistant Staphylococcus aureus MRSA090 at 75 ug/ml after 24 hrs by agar well diffusion method; conditions: MRSA090, 24 h, read-out: DIZ
# Fusarium oxysporum [7] = assay: Antifungal activity against Fusarium oxysporum at 25 ug/ml after 48 hrs by agar well diffusion method; conditions: for zone of inhibition at 25 µg/mL: read-out: DIZ
# Escherichia coli [8] = assay: Antibacterial activity against Escherichia coli at 25 ug/ml after 24 hrs by agar well diffusion method; conditions: read-out: DIZ
# Staphylococcus aureus [9] = assay: Antibacterial activity against Staphylococcus aureus at 100 ug/ml after 24 hrs by agar well diffusion method
# Bacillus subtilis [10] = assay: Antibacterial activity against Bacillus subtilis at 100 ug/ml after 24 hrs by agar well diffusion method
# Aspergillus niger [11] = assay: Antifungal activity against Aspergillus niger at 75 ug/ml after 48 hrs by agar well diffusion method; conditions: read-out: DIZ
# Klebsiella pneumoniae [12] = assay: Antibacterial activity against Klebsiella pneumoniae at 100 ug/ml after 24 hrs by agar well diffusion method; conditions: read-out: DIZ
# Aspergillus niger [13] = assay: Antifungal activity against Aspergillus niger at 25 ug/ml after 48 hrs by agar well diffusion method; conditions: read-out: DIZ
# Fusarium verticillioides [14] = assay: Antifungal activity against Fusarium moniliforme at 75 ug/ml after 48 hrs by agar well diffusion method; conditions: for zone of inhibition at 75 µg/mL: read-out: DIZ
# Fusarium oxysporum [15] = assay: Antifungal activity against Fusarium oxysporum at 50 ug/ml after 48 hrs by agar well diffusion method; conditions: for zone of inhibition at 50 µg/mL: read-out: DIZ
# Bacillus subtilis [16] = assay: Antibacterial activity against Bacillus subtilis at 25 ug/ml after 24 hrs by agar well diffusion method
# Klebsiella pneumoniae [17] = assay: Antibacterial activity against Klebsiella pneumoniae at 75 ug/ml after 24 hrs by agar well diffusion method; conditions: read-out: DIZ
# Fusarium oxysporum [18] = assay: Antifungal activity against Fusarium oxysporum at 75 ug/ml after 48 hrs by agar well diffusion method; conditions: for zone of inhibition at 75 µg/mL: read-out: DIZ
# Staphylococcus aureus [19] = assay: Antibacterial activity against Staphylococcus aureus at 25 ug/ml after 24 hrs by agar well diffusion method
# Klebsiella pneumoniae [20] = assay: Antibacterial activity against Klebsiella pneumoniae at 25 ug/ml after 24 hrs by agar well diffusion method; conditions: read-out: DIZ
# Fusarium verticillioides [21] = assay: Antifungal activity against Fusarium moniliforme at 25 ug/ml after 48 hrs by agar well diffusion method; conditions: for zone of inhibition at 25 µg/mL: read-out: DIZ
# Aspergillus niger [22] = assay: Antifungal activity against Aspergillus niger at 100 ug/ml after 48 hrs by agar well diffusion method; conditions: read-out: DIZ
# Escherichia coli [23] = assay: Antibacterial activity against Escherichia coli at 100 ug/ml after 24 hrs by agar well diffusion method; conditions: read-out: DIZ
# Aspergillus niger [24] = assay: Antifungal activity against Aspergillus niger at 50 ug/ml after 48 hrs by agar well diffusion method; conditions: read-out: DIZ
# Bacillus subtilis [25] = assay: Antibacterial activity against Bacillus subtilis at 50 ug/ml after 24 hrs by agar well diffusion method
# Staphylococcus aureus [26] = assay: Antibacterial activity against methicillin resistant Staphylococcus aureus MRSA090 at 50 ug/ml after 24 hrs by agar well diffusion method; conditions: MRSA090, 24 h, read-out: DIZ
# Klebsiella pneumoniae [27] = assay: Antibacterial activity against Klebsiella pneumoniae at 50 ug/ml after 24 hrs by agar well diffusion method; conditions: read-out: DIZ
# Fusarium oxysporum [28] = assay: Antifungal activity against Fusarium oxysporum at 100 ug/ml after 48 hrs by agar well diffusion method; conditions: for zone of inhibition at 100 µg/mL: read-out: DIZ
# Staphylococcus aureus [29] = assay: Antibacterial activity against Staphylococcus aureus at 75 ug/ml after 24 hrs by agar well diffusion method
# Fusarium verticillioides [30] = assay: Antifungal activity against Fusarium moniliforme at 50 ug/ml after 48 hrs by agar well diffusion method; conditions: for zone of inhibition at 50 µg/mL: read-out: DIZ
# Staphylococcus aureus [31] = assay: Antibacterial activity against methicillin resistant Staphylococcus aureus MRSA090 at 25 ug/ml after 24 hrs by agar well diffusion method; conditions: MRSA090, 24 h, read-out: DIZ
# Staphylococcus aureus [32] = assay: Antibacterial activity against methicillin resistant Staphylococcus aureus MRSA090 at 100 ug/ml after 24 hrs by agar well diffusion method; conditions: MRSA090, 24 h, read-out: DIZ
Structure (SMILES),zone of inhibition at 100 µg/mL (Fusarium verticillioides [1]) [mm],zone of inhibition at 50 µg/mL (Escherichia coli [2]) [mm],diameter of the inhibition zone (DIZ) (Bacillus subtilis [3]),zone of inhibition at 75 µg/mL (Escherichia coli [4]) [mm],diameter of the inhibition zone (DIZ) (Staphylococcus aureus [5]),zone of inhibition at 75 µg/mL (Staphylococcus aureus [6]) [mm],zone of inhibition at 25 µg/mL (Fusarium oxysporum [7]) [mm],zone of inhibition at 25 µg/mL (Escherichia coli [8]) [mm],zone of inhibition at 75 µg/mL (Aspergillus niger [11]) [mm],zone of inhibition at 100 µg/mL (Klebsiella pneumoniae [12]) [mm],zone of inhibition at 25 µg/mL (Aspergillus niger [13]) [mm],zone of inhibition at 75 µg/mL (Klebsiella pneumoniae [17]) [mm],zone of inhibition at 25 µg/mL (Klebsiella pneumoniae [20]) [mm],zone of inhibition at 100 µg/mL (Aspergillus niger [22]) [mm],zone of inhibition at 100 µg/mL (Escherichia coli [23]) [mm],zone of inhibition at 50 µg/mL (Aspergillus niger [24]) [mm],zone of inhibition at 50 µg/mL (Staphylococcus aureus [26]) [mm],zone of inhibition at 50 µg/mL (Klebsiella pneumoniae [27]) [mm],zone of inhibition at 25 µg/mL (Staphylococcus aureus [31]) [mm],zone of inhibition at 100 µg/mL (Staphylococcus aureus [32]) [mm],further results
Cc1cccc2nc(N/N=C/c3ccco3)sc12,21,9,inactive,13,inactive,13,4,4,17,24,10,21,11,22,17,13,9,16,5,16,diameter of the inhibition zone (DIZ) (Staphylococcus aureus [9]): inactive; diameter of the inhibition zone (DIZ) (Bacillus subtilis [10]): inactive; zone of inhibition at 75 µg/mL (Fusarium verticillioides [14]): 18 mm; zone of inhibition at 50 µg/mL (Fusarium oxysporum [15]): 10 mm; diameter of the inhibition zone (DIZ) (Bacillus subtilis [16]): inactive; zone of inhibition at 75 µg/mL (Fusarium oxysporum [18]): 14 mm; diameter of the inhibition zone (DIZ) (Staphylococcus aureus [19]): inactive; zone of inhibition at 25 µg/mL (Fusarium verticillioides [21]): 10 mm; diameter of the inhibition zone (DIZ) (Bacillus subtilis [25]): inactive; zone of inhibition at 100 µg/mL (Fusarium oxysporum [28]): 18 mm; diameter of the inhibition zone (DIZ) (Staphylococcus aureus [29]): inactive; zone of inhibition at 50 µg/mL (Fusarium verticillioides [30]): 13 mm
Cc1cccc2nc(N/N=C/c3ccncc3)sc12,–,14,inactive,16,inactive,14,–,7,13,18,6,14,5,16,19,11,10,9,7,17,diameter of the inhibition zone (DIZ) (Fusarium verticillioides [1]): inactive; diameter of the inhibition zone (DIZ) (Fusarium oxysporum [7]): inactive; diameter of the inhibition zone (DIZ) (Staphylococcus aureus [9]): inactive; diameter of the inhibition zone (DIZ) (Bacillus subtilis [10]): inactive; diameter of the inhibition zone (DIZ) (Fusarium verticillioides [14]): inactive; diameter of the inhibition zone (DIZ) (Fusarium oxysporum [15]): inactive; diameter of the inhibition zone (DIZ) (Bacillus subtilis [16]): inactive; diameter of the inhibition zone (DIZ) (Fusarium oxysporum [18]): inactive; diameter of the inhibition zone (DIZ) (Staphylococcus aureus [19]): inactive; diameter of the inhibition zone (DIZ) (Fusarium verticillioides [21]): inactive; diameter of the inhibition zone (DIZ) (Bacillus subtilis [25]): inactive; diameter of the inhibition zone (DIZ) (Fusarium oxysporum [28]): inactive; diameter of the inhibition zone (DIZ) (Staphylococcus aureus [29]): inactive; diameter of the inhibition zone (DIZ) (Fusarium verticillioides [30]): inactive
Cc1cccc2nc(N/N=C/c3ccc(F)cc3)sc12,30,9,–,14,–,16,10,5,18,19,10,16,6,22,17,13,12,11,8,19,zone of inhibition at 75 µg/mL (Bacillus subtilis [3]; read-out: DIZ): 12 mm; zone of inhibition at 50 µg/mL (Staphylococcus aureus [5]; read-out: DIZ): 12 mm; zone of inhibition at 100 µg/mL (Staphylococcus aureus [9]; read-out: DIZ): 18 mm; zone of inhibition at 100 µg/mL (Bacillus subtilis [10]; read-out: DIZ): 14 mm; zone of inhibition at 75 µg/mL (Fusarium verticillioides [14]): 21 mm; zone of inhibition at 50 µg/mL (Fusarium oxysporum [15]): 13 mm; zone of inhibition at 25 µg/mL (Bacillus subtilis [16]; read-out: DIZ): 6 mm; zone of inhibition at 75 µg/mL (Fusarium oxysporum [18]): 18 mm; zone of inhibition at 25 µg/mL (Staphylococcus aureus [19]; read-out: DIZ): 9 mm; zone of inhibition at 25 µg/mL (Fusarium verticillioides [21]): 14 mm; zone of inhibition at 50 µg/mL (Bacillus subtilis [25]; read-out: DIZ): 9 mm; zone of inhibition at 100 µg/mL (Fusarium oxysporum [28]): 21 mm; zone of inhibition at 75 µg/mL (Staphylococcus aureus [29]; read-out: DIZ): 16 mm; zone of inhibition at 50 µg/mL (Fusarium verticillioides [30]): 18 mm
